According to patent US20110015068A1, “Herbicidal Compositions Comprising Pyroxasulfone V” (BASF SE, priority 2008, published 2011):
Like-named read-outs stand apart in the source and are kept apart here.

Key:
Format in all cases: in vivo
[1] = test system: Setaria faberii; assay: pre-emergence greenhouse test, SETFA; conditions: Setaria faberi, read-out: observed % activity; for inhibition at 25 g/ha: 25 g ai/ha; for inhibition at 50 g/ha: 50 g ai/ha
Description: (§1) For the pre-emergence treatment, directly after sowing the active compounds, which had been suspended or emulsified in water, were applied by means of finely distributed nozzles. The containers were irrigated gently to promote germination and growth and subsequently covered with transparent plastic hoods until plant had rooted. This cover caused uniform germination of the tests plants, unless this was adversely affected by active compounds.
(§2) The respective herbicides A and/or safener were formulated as 10% by weight strength suspension concentrate and introduced to the spray liquor with the amount of solvent system used for applying the active compound. Herbicide B and/or safener were used as commercially available formulations and introduced to the spray liquor with the amount of solvent system used for applying the active compound. In the examples, the solvent used was water.
(§3) The test period extended over 21 days. During this time, the plants were tended, and their response to the treatments with active compound was evaluated.
(§4) The evaluation for the damage caused by the chemical compositions was carried out using a scale from 0 to 100%, compared to the untreated control plants. Here, 0 means no damage and 100 means complete destruction of the plants.

[2] = test system: Setaria italica; assay: pre-emergence greenhouse test, SETIT; conditions: Setaria italica, 25 g ai/ha, read-out: observed % activity
Description: as §1, §2, §3, §4

[3] = test system: Alopecurus myosuroides; assay: pre-emergence greenhouse test, ALOMY; conditions: Alopecurus myosuroides, 50 g ai/ha, read-out: observed % activity
Description: as §1, §2, §3, §4

[4] = test system: Bromus inermis; assay: pre-emergence greenhouse test, BROIN; conditions: Bromus inermis, 25 g ai/ha, read-out: observed % activity
Description: as §1, §2, §3, §4

[5] = test system: Chenopodium album; assay: pre-emergence greenhouse test, CHEAL; conditions: Chenopodium album, read-out: observed % activity; for inhibition at 25 g/ha: 25 g ai/ha; for inhibition at 50 g/ha: 50 g ai/ha
Description: as §1, §2, §3, §4

[6] = test system: Ipomoea purpurea; assay: pre-emergence greenhouse test, PHBPU; conditions: Ipomoea purpurea, read-out: observed % activity; for inhibition at 25 g/ha: 25 g ai/ha; for inhibition at 50 g/ha: 50 g ai/ha
Description: as §1, §2, §3, §4

[7] = test system: Ambrosia artemisifolia; assay: pre-emergence greenhouse test, AMBEL; conditions: Ambrosia, read-out: observed % activity; for inhibition at 25 g/ha: 25 g ai/ha; for inhibition at 50 g/ha: 50 g ai/ha
Description: as §1, §2, §3, §4

[8] = test system: Matricaria inermis; assay: pre-emergence greenhouse test, MATIN; conditions: Matricaria, read-out: observed % activity; for inhibition at 25 g/ha: 25 g ai/ha; for inhibition at 50 g/ha: 50 g ai/ha
Description: as §1, §2, §3, §4

[9] = test system: Kochia scoparia; assay: pre-emergence greenhouse test, KCHSC; conditions: Bassia scoparia, 25 g ai/ha, read-out: observed % activity
Description: as §1, §2, §3, §4

[10] = test system: Setaria lutescens; assay: post-emergence greenhouse test, SETLU; conditions: Setaria pumila, 13 g ai/ha, read-out: observed % activity
Description: (§5) For the post-emergence treatment, the test plants were first grown to a height of 3 to 20 cm, depending on the plant habit, and only then treated. Here, the herbicidal compositions were suspended or emulsified in water as distribution medium and sprayed using finely distributing nozzles.
as §2, §3, §4

[11] = test system: Alopecurus myosuroides; assay: post-emergence greenhouse test, ALOMY; conditions: for observed activity in % destruction: Table 3; for inhibition at 13 g/ha / inhibition at 100 g/ha: Alopecurus myosuroides, read-out: observed % activity; for inhibition at 13 g/ha: 13 g ai/ha
Description: as §5, §2, §3, §4

[12] = test system: Sorghum halepense; assay: post-emergence greenhouse test, SORHA; conditions: Sorghum halepense, 50 g ai/ha, read-out: observed % activity
Description: as §5, §2, §3, §4

[13] = test system: Setaria italica; assay: post-emergence greenhouse test, SETIT; conditions: Setaria italica, read-out: observed % activity; for inhibition at 50 g/ha: 50 g ai/ha; for inhibition at 100 g/ha: 100 g ai/ha
Description: as §5, §2, §3, §4

[14] = test system: Solanum nigrum; assay: post-emergence greenhouse test, SOLNI; conditions: Solanum nigrum, read-out: observed % activity; for inhibition at 13 g/ha: 13 g ai/ha; for inhibition at 100 g/ha: 100 g ai/ha
Description: as §5, §2, §3, §4

[15] = test system: Galium aparine; assay: post-emergence greenhouse test, GALAP; conditions: for inhibition at 25 g/ha / inhibition at 100 g/ha: Galium aparine, read-out: observed % activity; for inhibition at 25 g/ha: 25 g ai/ha; for inhibition at 100 g/ha: 100 g ai/ha
Description: as §5, §2, §3, §4

[16] = test system: Kochia scoparia; assay: post-emergence greenhouse test, KCHSC; conditions: Bassia scoparia, read-out: observed % activity; for inhibition at 13 g/ha: 13 g ai/ha; for inhibition at 100 g/ha: 100 g ai/ha
Description: as §5, §2, §3, §4

[17] = test system: Avena fatua; assay: post-emergence greenhouse test, AVEFA; conditions: 50 g ai/ha, 20 DAT, Table 3
Description: as §5, §2, §3, §4

[18] = test system: Digitaria sanguinalis; assay: post-emergence greenhouse test, DIGSA; conditions: 20 DAT
Description: as §5, §2, §3, §4

[19] = test system: Lolium multiflorum; assay: post-emergence greenhouse test, LOLMU; conditions: 20 DAT
Description: as §5, §2, §3, §4

[20] = test system: Setaria faberii; assay: post-emergence greenhouse test, SETFA; conditions: 50 g ai/ha, 20 DAT
Description: as §5, §2, §3, §4

[21] = test system: Setaria viridis; assay: post-emergence greenhouse test, SETVI; conditions: 25 g ai/ha, 20 DAT, Table 3
Description: as §5, §2, §3, §4

[22] = test system: Matricaria inermis; assay: post-emergence greenhouse test, MATIN; conditions: 20 DAT
Description: as §5, §2, §3, §4

Cn1nc(C(F)(F)F)c(CS(=O)(=O)C2=NOC(C)(C)C2)c1OC(F)F [pyroxasulfone, 3-[5-(difluoromethoxy)-1-methyl-3-(trifluoromethyl)pyrazol-4-ylmethylsulfonyl]-4,5-dihydro-5,5-dimethyl-1,2-oxazole]
65%: inhibition at 25 g/ha ([5]; 192 h, 8 DAT) | inhibition at 50 g/ha ([6]; 192 h, 8 DAT) | inhibition at 25 g/ha ([7]; 480 h, 20 DAT) | inhibition at 13 g/ha ([10]; 480 h, 20 DAT) | inhibition at 50 g/ha ([12]; 192 h, 8 DAT)
95%: inhibition at 25 g/ha ([5]; 480 h, 20 DAT)
25%: inhibition at 50 g/ha ([13]; 192 h, 8 DAT)
70%: inhibition at 50 g/ha ([5]; 192 h, 8 DAT) | inhibition at 100 g/ha ([15]; 192 h, 8 DAT) | inhibition at 100 g/ha ([16]; 480 h, 20 DAT)
85%: inhibition at 25 g/ha ([1]; 192 h, 8 DAT) | inhibition at 50 g/ha ([8]; 480 h, 20 DAT) | inhibition at 25 g/ha ([15]; 480 h, 20 DAT) | observed activity in % destruction ([20]; Table 3) | observed activity in % destruction ([20]; Table 4)
15%: inhibition at 13 g/ha ([11]; 480 h, 20 DAT)
55%: observed activity in % destruction ([11]; 50 g ai/ha, 20 DAT) | observed activity in % destruction ([19]; 12.5 g ai/ha, Table 3) | observed activity in % destruction ([19]; 25 g ai/ha, Table 3) | observed activity in % destruction ([19]; 50 g ai/ha, Table 4)
98%: inhibition at 25 g/ha ([1]; 480 h, 20 DAT) | inhibition at 50 g/ha ([1]; 480 h, 20 DAT) | inhibition at 25 g/ha ([2]; 480 h, 20 DAT) | inhibition at 50 g/ha ([3]; 480 h, 20 DAT) | inhibition at 50 g/ha ([5]; 480 h, 20 DAT) | inhibition at 25 g/ha ([9]; 480 h, 20 DAT)
75%: inhibition at 25 g/ha ([2]; 192 h, 8 DAT) | inhibition at 25 g/ha ([4]; 480 h, 20 DAT) | inhibition at 100 g/ha ([11]; 480 h, 100 g ai/ha, 20 DAT) | inhibition at 50 g/ha ([13]; 480 h, 20 DAT) | inhibition at 13 g/ha ([14]; 192 h, 8 DAT) | inhibition at 100 g/ha ([14]; 192 h, 8 DAT) | inhibition at 13 g/ha ([14]; 480 h, 20 DAT) | observed activity in % destruction [17] | observed activity in % destruction [21]
0%: inhibition at 25 g/ha ([8]; 192 h, 8 DAT) | inhibition at 13 g/ha ([10]; 192 h, 8 DAT) | inhibition at 13 g/ha ([11]; 192 h, 8 DAT) | observed activity in % destruction ([22]; 12.5 g ai/ha, Table 3) | observed activity in % destruction ([22]; 25 g ai/ha, Table 3) | observed activity in % destruction ([22]; 25 g ai/ha, Table 4)
60%: inhibition at 25 g/ha ([4]; 192 h, 8 DAT) | inhibition at 25 g/ha ([8]; 480 h, 20 DAT) | inhibition at 25 g/ha ([15]; 192 h, 8 DAT) | inhibition at 13 g/ha ([16]; 192 h, 8 DAT) | inhibition at 100 g/ha ([16]; 192 h, 8 DAT)
20%: inhibition at 50 g/ha ([8]; 192 h, 8 DAT)
45%: inhibition at 100 g/ha ([13]; 192 h, 8 DAT)
50%: inhibition at 25 g/ha ([6]; 480 h, 20 DAT) | inhibition at 50 g/ha ([7]; 192 h, 8 DAT) | inhibition at 13 g/ha ([16]; 480 h, 20 DAT) | observed activity in % destruction ([18]; 12.5 g ai/ha, Table 4)
80%: inhibition at 50 g/ha ([7]; 480 h, 20 DAT) | observed activity in % destruction ([11]; 100 g ai/ha, 20 DAT) | inhibition at 100 g/ha ([13]; 480 h, 20 DAT) | observed activity in % destruction ([18]; 50 g ai/ha, Table 3)
90%: inhibition at 50 g/ha ([1]; 192 h, 8 DAT) | inhibition at 50 g/ha ([3]; 192 h, 8 DAT) | inhibition at 50 g/ha ([6]; 480 h, 20 DAT) | inhibition at 50 g/ha ([12]; 480 h, 20 DAT) | inhibition at 100 g/ha ([14]; 480 h, 20 DAT) | inhibition at 100 g/ha ([15]; 480 h, 20 DAT)
40%: inhibition at 25 g/ha ([6]; 192 h, 8 DAT) | inhibition at 25 g/ha ([7]; 192 h, 8 DAT) | inhibition at 25 g/ha ([9]; 192 h, 8 DAT) | inhibition at 100 g/ha ([11]; 192 h, 100 g ai/ha, 8 DAT) | observed activity in % destruction ([15]; 12.5 g ai/ha, 20 DAT, Table 4)
